Reference: US20230024108A1, “ADENOSINE A2A RECEPTOR ANTAGONISTS” (Teon Therapeutics, Inc., priority 2019, published 2023)

Legend:
human A2A AdoR = molecular target: T1, human A2A AdoR (Homo sapiens, UniProt P29274); assay: Adenosine receptor binding assay, A2A ([3H]-CGS-21680); settings: membranes of HEK-293 cells expressing human A2A AdoR; read-out: hA2A IC50
T1 construct: purchased PerkinElmer RBHA2AM400UA
Procedure, shortened: (§1)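 Filtration binding on membranes: A2A in HEK-293 with 6 nM [3H]-CGS-21680, Tris pH 7.4, 2 h; A2B in HEK-293 with 8 nM [3H]-DPCPX, HEPES pH 7.0, 1 h; A1 in CHO-K1 with 1 nM [3H]-DPCPX, HEPES pH 7.4, 1 h; room temperature. 8-point dilutions; IC50 converted to Ki (Cheng–Prusoff).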

A1AdoR = molecular target: T2, A1AdoR (Homo sapiens, UniProt P30542); assay: Adenosine receptor binding assay, A1 ([3H]-DPCPX); settings: ratio A1 vs A2A binding
T2 construct: purchased PerkinElmer ES-010-M400UA
T2 sequence (P30542 1-326): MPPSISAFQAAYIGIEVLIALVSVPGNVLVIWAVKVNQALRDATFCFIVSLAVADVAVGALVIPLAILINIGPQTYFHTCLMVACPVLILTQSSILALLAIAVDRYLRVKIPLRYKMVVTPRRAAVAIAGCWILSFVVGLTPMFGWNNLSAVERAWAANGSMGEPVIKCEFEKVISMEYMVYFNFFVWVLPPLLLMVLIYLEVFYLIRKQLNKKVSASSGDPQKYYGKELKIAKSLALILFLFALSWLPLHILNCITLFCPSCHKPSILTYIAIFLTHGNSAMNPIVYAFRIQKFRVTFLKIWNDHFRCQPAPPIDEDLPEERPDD
Procedure, shortened: as §1

phospho-CREB (pCREB) = assay: Human whole blood phospho-CREB (pCREB) assay / modulation of pCREB in human immune cells; assay type: cell-based; settings: agonist (NECA or CGS-21680)-stimulated human blood cells
Description: Fresh human blood samples are derived from healthy volunteers and processed in heparin tubes. 67.5 ul of whole blood is aliquoted to each well in a 96-well plate and incubated at 37° C. for 30 min. Testing compounds are diluted with DMSO to make 8-point 3-fold serial dilution and 3.5 ul (20×) is added to each well. Cells are incubated with the compounds at 37° C. for 30 min. NECA (5 uM) is then added to each well and cells are incubated for 30 min at 37° C. Following the stimulation, cells are transferred to a 96-well deep well plates and fixed with 1 ml/well of lyse/fix buffer (1×) (BD Biosciences #558049) with vigorous shake at 37° C. for 10 min. Cells are centrifuged at 600 g for 6 min and washed twice with PBS, followed by addition of 800 ul/well Perm buffer III (BD Biosciences #558050). Cells are then pelleted at 600 g for 6 min, washed with FACS buffer (PBS+0.2% BSA+1 mM EDTA) and stained for 40 min at room temperature in the dark with an antibody cocktail containing PE mouse anti-human CD3 (BD Biosciences #555333, 1 ul/well), FITC mouse anti-human CD4 (BD Biosciences #5555346, 1 ul/well), PerCP-Cy™5.5 mouse anti-human CD8 (BD Biosciences #565310, 1 ul/well) and phospho-CREB (Ser133) (87G3) Rabbit mAb (Alexa Fluor® 647 Conjugate, CST #14001, 0.5 ul/well). Cells are then washed twice with FACS buffer and acquired on a flow cytometer (Sony Cell Sorter SH800). Data were analyzed using FlowJo version 9. The level of CREB phosphorylation from unstimulated cells (Low control: LC) and NECA-stimulated cells (High control: HC) are determined as mean fluorescent intensity (MFI) in stimulated condition/mean fluorescent intensity in unstimulated condition. % Inhibition is calculated as (MFI of HC-MFI of assay well)/(MFI of HC-MFI of LC)×100%. Data are analyzed and IC50s calculated using GraphPad Prism 5 and the model “log(inhibitor) vs. response—Variable slope”.
The A2A receptor is known to mediate CREB phosphorylation.
Venous blood from healthy volunteers, all of whom signed an informed consent approved by the Ethics Committee (FOR—UIC-BV-050-01-01 ICF HBS HD Version 5.0), was obtained via ImmuneHealth (Centre Hospitalier Universitaire Tivoli, La Louviere,
15 Belgium). Peripheral blood cells were treated with A2AR agonists CGS-21680 or NECA (Sigma-Aldrich, Diegem, Belgium), and a serial dilution of compounds disclosed herein (all used stock solutions at 10 mM in DMSO). All dilutions were prepared in RPMI1640 medium (with UltraGlutamine; Lonza, Venders, Belgium), and cells were incubated with compounds in a 37° C. humidified tissue culture incubator with 5% CO2.
After stimulation, cells were fixed and permeabilized, followed by intracellular staining using mouse anti-human pCREB antibodies (Clone J151-21; BD Biosciences) at room temperature. Data were acquired using an LSRFortessa flow cytometer (BD Biosciences) and analyzed using FlowJo software (FlowJo, LLC, Ashland, Oregon).

human A2B AdoR = molecular target: T3, human A2B AdoR (Homo sapiens, UniProt P29275); assay: Adenosine receptor binding assay, A2B ([3H]-DPCPX); settings: ratio A2B vs A2A binding
T3 construct: purchased PerkinElmer ES-013-M400UA
T3 sequence (P29275 1-332): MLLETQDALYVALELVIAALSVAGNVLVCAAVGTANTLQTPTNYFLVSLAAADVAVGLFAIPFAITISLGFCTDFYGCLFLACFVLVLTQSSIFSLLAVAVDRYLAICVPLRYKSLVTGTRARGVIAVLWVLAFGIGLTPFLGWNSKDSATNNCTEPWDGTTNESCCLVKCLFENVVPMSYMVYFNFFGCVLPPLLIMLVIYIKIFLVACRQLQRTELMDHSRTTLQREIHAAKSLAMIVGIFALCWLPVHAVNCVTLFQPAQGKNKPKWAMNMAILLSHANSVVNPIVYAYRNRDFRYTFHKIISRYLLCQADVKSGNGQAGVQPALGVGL
Description: Membranes prepared from CHO-K1 cells stably expressing Human AiAdoR (ES-010-M400UA), HEK-293 cells stably expressing human A2A AdoR (RBHA2AM400UA), HEK-293 cells stably expressing human A2B AdoR (ES-013-M400UA) and CHO-K1 cells stably expressing Human A3 AdoR (ES-012-M400UA) were purchased from PerkinElmer (Waltham, Mass., USA) and stored at −80° C. until use. Binding assays are performed using the radioligands. The final concentrations are as follows: [3H]-DPCPX (PerkinElmer, NET974001MC) at 1 nM for A1AdoR; [^3H]-CGS-21680 (PerkinElmer, NET1021250UC) at 6 nM for A2AAdoR, [3H]-DPCPX (PerkinElmer, NET974001MC) at 8 nM for A2BAdoR; [^3H]-HEMADO (ARC, Cat: ART1456) at 1 nM for A3AdoR. Testing compounds are diluted with DMSO to make 8-point 4-fold serial dilution. Nonspecific binding (Low control: LC) and total binding (High control: HC) are determined in the presence or absence of saturated cold ligand. Specific binding is calculated by subtracting nonspecific binding from total binding. All assays are performed in a final volume of 200 μl containing 1 μl of the test compound in DMSO, 100 μl of membrane preparation, and 99 μl of the radioligand in assay buffer (A1AdoR: 25 mM HEPES pH 7.4, 5 mM MgCl2, 1 mM CaCl2), 100 mM NaCl; A2AAdoR: 50 mM Tris HCl pH 7.4, 10 mM MgCl2, 1 mM EDTA; A2BAdoR: 50 mM HEPES pH 7.0, 5 mM MgCl2, 1 mM EDTA; A3AdoR: 25 HEPES pH 7.4, 10 mM MgCl2, 1 mM CaCl2), 0.5% BSA). The incubation is performed at room temperature with shaking at 300 rpm for 1 hour for A1AdoR, A2BAdoR and A3AdoR and 2 hours for A2AAdoR. After the incubation, the assay mixture is filtered through 96 GF/C filter plates (Perkin Elmer #6005174) using Perkin Elmer Filtermate Harvester, and then washed four times with ice-cold washing buffer (A1AdoR: 25 mM HEPES pH 7.4, 5 mM MgCl2, 1 mM CaCl2), 100 mM NaCl; A2AAdoR: 50 mM Tris HCl pH 7.4, 154 mM NaCl; A2BAdoR: 50 mM HEPES pH 6.5, 5 mM MgCl2, 1 mM EDTA, 0.2% BSA; A3AdoR: 50 mM Tris HCl pH 7.4). The filters are dried for 1 hour at 50° C. and [^3H] trapped on filter counted for radioactivity in Perkin Elmer Microscint 20 cocktail (#6013329) using Perkin Elmer MicroBeta2 Reader. The results are expressed as a percent inhibition of the control radioligand specific binding calculated using the following equation: % Inhibition=(1−(Assay well-Average_LC)/(Average_HC−Average_LC))×100%. Data are analyzed and IC50 is calculated using GraphPad Prism 5 and the model “log(inhibitor) vs. response—Variable slope”. The binding affinity of the compounds is determined by using the Cheng and Prusoff equation Ki=IC50/(1+[radioligand]/Kd).

T1 sequence (P29274 whole entry): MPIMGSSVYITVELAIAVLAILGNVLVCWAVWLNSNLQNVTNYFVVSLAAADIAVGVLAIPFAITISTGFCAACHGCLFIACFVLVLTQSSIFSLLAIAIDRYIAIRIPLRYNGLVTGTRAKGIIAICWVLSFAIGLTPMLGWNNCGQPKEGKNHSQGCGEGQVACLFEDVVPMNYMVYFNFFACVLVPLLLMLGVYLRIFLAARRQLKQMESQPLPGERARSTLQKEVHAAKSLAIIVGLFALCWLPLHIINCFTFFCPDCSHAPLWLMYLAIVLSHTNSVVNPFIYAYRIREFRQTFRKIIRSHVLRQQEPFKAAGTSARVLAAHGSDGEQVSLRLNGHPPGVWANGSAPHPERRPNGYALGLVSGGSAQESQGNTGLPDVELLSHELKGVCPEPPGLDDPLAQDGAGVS

Row | IC50 (human A2A AdoR) | EC50 (phospho-CREB (pCREB)) | A2B/A2A Selectivity (human A2B AdoR) | SMILES | A1/A2A Selectivity (A1AdoR)
1 | ≤ 20 nM | 20 to 100 nM | a (greater than 1000) | NC(=O)c1cc2c(nc(N)n3nc(-c4ccccn4)nc23)n1CCN1CCN(c2ccc(OCC(=O)O)cc2)CC1 | b (greater than 100 but less than or equal to 1000)
2 | ≤ 20 nM | 20 to 100 nM | a (greater than 1000) | NC(=O)c1cc2c(nc(N)n3nc(-c4ccccn4)nc23)n1CCN1CCN(c2cc(-c3ncco3)ccc2F)CC1 | b (greater than 100 but less than or equal to 1000)
3 | ≤ 20 nM | > 100 nM | a (greater than 1000) | COCCOc1ccc(N2CCN(CCn3c(C(N)=O)cc4c3nc(N)n3nc(-c5ccccn5)nc43)CC2)cc1 | c (greater than 0 but less than or equal to 100)
4 | ≤ 20 nM | > 100 nM | a (greater than 1000) | COCCOc1ccc(N2CCN(CCn3c(C#N)cc4c3nc(N)n3nc(-c5ccccn5)nc43)CC2)cc1 | b (greater than 100 but less than or equal to 1000)
5 | ≤ 20 nM | > 100 nM | a (greater than 1000) | CC#Cc1nc2c3cc(C#N)n(CCN4CCN(c5ccc(OCCOC)cc5)CC4)c3nc(N)n2n1 | a (greater than 1000)

The next lines start with the compound.

Row | SMILES | IC50 (human A2A AdoR) | EC50 (phospho-CREB (pCREB)) | A2B/A2A Selectivity (human A2B AdoR) | A1/A2A Selectivity (A1AdoR)
6 | Cc1c(C(=O)O)n(CCN2CCN(c3cc(-c4ncco4)ccc3F)CC2)c2nc(N)n3nc(-c4ccccn4)nc3c12 | ≤ 20 nM | ≤ 20 nM | a (greater than 1000) | a (greater than 1000)
7 | Cc1c(C(=O)NC2CC2)n(CCN2CCN(c3cc(-c4ncco4)ccc3F)CC2)c2nc(N)n3nc(-c4ccccn4)nc3c12 | ≤ 20 nM | > 100 nM | a (greater than 1000) | a (greater than 1000)
8 | Cc1noc2cc(F)c(N3CCN(CCn4c(C#N)c(Cl)c5c4nc(N)n4nc(-c6ccccn6)nc54)CC3)cc12 | ≤ 20 nM | 20 to 100 nM | a (greater than 1000) | a (greater than 1000)
9 | Cc1noc2cc(F)c(N3CCN(CCn4nc(Cl)c5c4nc(N)n4nc(-c6ccccn6)nc54)CC3)cc12 | ≤ 20 nM | ≤ 20 nM | a (greater than 1000) | b (greater than 100 but less than or equal to 1000)
10 | Nc1nc2c(cc(C(=O)O)n2CCN2CCN(c3cc(-c4ncco4)ccc3F)CC2)c2nc(-c3ccccn3)nn12 [5-amino-7-(2-(4-(2-fluoro-5-(oxazol-2-yl)phenyl)piperazin-1-yl)ethyl)-2-(pyridin-2-yl)-7H-pyrrolo[3,2-e][1,2,4]triazolo[1,5-c]pyrimidine-8-carboxylic acid] | ≤ 20 nM | > 100 nM | a (greater than 1000) | b (greater than 100 but less than or equal to 1000)
11 | Cc1noc2cc(F)c(N3CCN(CCn4c(C(N)=O)c(Cl)c5c4nc(N)n4nc(-c6ccccn6)nc54)CC3)cc12 [5-amino-9-chloro-7-[2-[4-(6-fluoro-3-methyl-1,2-benzoxazol-5-yl)piperazin-1-yl]ethyl]-2-(2-pyridyl)-[1,2,4]triazolo[1,5-c]pyrrolo[3,2-e]pyrimidine-8-carboxamide] | ≤ 20 nM | ≤ 20 nM | a (greater than 1000) | a (greater than 1000)
